Measurements: patent publication EP4389751A1, “HETEROCYCLIC COMPOUNDS AND USES THEREOF” (Kumquat Biosciences Inc., priority 2021, dated 2024)
Where two headings read alike, the source gives them in different places.

Assays:
A549 cells = assay: Cell proliferation assay (CellTiter-Glo), K-Ras G12S cells; assay type: cell-based; conditions: for IC50: Homo sapiens; for ratio of IC50 against a G12D cell line to IC50 against a G12S cell line: K-Ras G12D cell line such as GP2D relative to K-Ras G12S cell line such as A549, greater than 1, 2, 3, 4, 5, 10, 15 or even greater, 8640 min
Outline: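 A549 cells (K-Ras G12S) in RPMI-1640 with 10% FBS, seeded in standard or ultra-low-attachment plates and dosed next day with a 10-point 3-fold series. Viability read about 6 days later by CellTiter-Glo luminescence. IC50 from four-parameter fit.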

GP2D cells = assay: Cell proliferation assay (CellTiter-Glo), K-Ras G12D cells; assay type: cell-based; conditions: read-out: Inhibition of GP2D Cells (IC50)
Outline: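 GP2D (K-Ras G12D) cells seeded in DMEM with 2 mM glutamine and 10% FBS, then dosed next day with a dilution series (e.g., 9-point 3-fold). Viability read by CellTiter-Glo luminescence after about 5 days. IC50 from four-parameter fit.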

[1] = molecular target: T1, KRAS protein (His-tagged GDP-loaded G12S 1-169) (Homo sapiens, UniProt P01116, G12S); assay: Covalent modification of KRAS protein, intact-protein LC-MS; assay type: binding; conditions: for % G12S Modification at 24 hr.: 24hrs at room temperature, KRAS protein ~2 µM; for K-Ras12S engagement after 24-hour treatment: compound pairs differ only at R^6 (warhead)
T1 construct: His-tagged GDP-loaded G12S 1-169
Outline: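 His-tagged GDP-loaded KRAS 1-169 (~2 µM) incubated with compound 24 h at room temperature, then quenched with formic acid. Intact-protein LC-ESI-MS on C4 column; deconvoluted peak intensities of unmodified and adducted protein give percent covalent modification.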

[2] = A549, A549 cells (K-Ras G12S), bin 500 nM to 5 µM, read-out: Inhibition of A549 Cells (IC50)
[3] = A549, A549 cells (K-Ras G12S), bin ≤ 500 nM, read-out: Inhibition of A549 Cells (IC50)
[4] = A549, read-out: Inhibition of A549 Cells (IC50)

| IC50 (A549 cells; [2]) [µM] | ratio of IC50 against a G12D cell line to IC50 against a G12S cell line (A549 cells) | IC50 (A549 cells; [3]) [µM] | SMILES | IC50 (GP2D cells; GP2D cells (K-Ras G12D)) [µM] | % G12S Modification at 24 hr. [1] | K-Ras12S engagement after 24-hour treatment [1] | IC50 (A549 cells; [4]) [µM] | IC50 (GP2D cells; GP2d) [µM] |
| --- | --- | --- | --- | --- | --- | --- | --- | --- |
| 0.5 to 5 | greater than 1 | – | Nc1nc2c(-c3c(Cl)cc4c(N5CCCC6(CN(C(=O)n7cncn7)C6)C5)nc(OC[C@@]56CCCN5C[C@H](F)C6)nc4c3F)ccc(F)c2s1 [Compound A136, (6-(7-(2-amino-7-fluorobenzo[d]thiazol-4-yl)-6-chloro-8-fluoro-2-(((2R,7aS)-2-fluorotetrahydro-1H-pyrrolizin-7a(5H)-yl)methoxy)quinazolin-4-yl)-2,6-diazaspiro[3.5]nonan-2-yl)(1H-1,2,4-triazol-1-yl)methanone] | 1 to 10 | +++ (+++ indicates greater than 20% labelling) | – | – | – |
| 0.5 to 5 | – | – | Nc1nc2c(-c3c(Cl)cc4c(N5CCCN(C(=O)n6cncn6)CC5)nc(OC[C@@]56CCCN5C[C@H](F)C6)nc4c3F)ccc(F)c2s1 [Compound A191, (4-(7-(2-amino-7-fluorobenzo[d]thiazol-4-yl)-6-chloro-8-fluoro-2-(((2R,7aS)-2-fluorotetrahydro-1H-pyrrolizin-7a(5H)-yl)methoxy)quinazolin-4-yl)-1,4-diazepan-1-yl)(1H-1,2,4-triazol-1-yl)methanone] | 1 to 10 | +++ (+++ indicates greater than 20% labelling) | – | – | – |
| – | – | ≤ 0.5 | N#Cc1c(N)sc2c(F)ccc(-c3c(Cl)cc4c(OC5CCCCN(C(=O)n6cncn6)C5)nc(OC[C@@]56CCCN5C[C@H](F)C6)nc4c3F)c12 (stereo partly drawn) [Compound A258, 4-(4-((1-(1H-1,2,4-triazole-1-carbonyl)azepan-3-yl)oxy)-6-chloro-8-fluoro-2-(((2R,7aS)-2-fluorotetrahydro-1H-pyrrolizin-7a(5H)-yl)methoxy)quinazolin-7-yl)-2-amino-7-fluorobenzo[b]thiophene-3-carbonitrile] | ≤ 1 | +++ (+++ indicates greater than 20% labelling) | – | – | – |
| 0.5 to 5 | – | – | N#Cc1c(N)sc2c(F)ccc(-c3ncc4c(N5CCCC6(CN(C(=O)n7cncn7)C6)C5)nc(OC[C@@]56CCCN5C[C@H](F)C6)nc4c3F)c12 [Compound A134, 4-(4-(2-(1H-1,2,4-triazole-1-carbonyl)-2,6-diazaspiro[3.5]nonan-6-yl)-8-fluoro-2-(((2R,7aS)-2-fluorotetrahydro-1H-pyrrolizin-7a(5H)-yl)methoxy)pyrido[4,3-d]pyrimidin-7-yl)-2-amino-7-fluorobenzo[b]thiophene-3-carbonitrile] | 1 to 10 | +++ (+++ indicates greater than 20% labelling) | – | – | – |
| – | – | ≤ 0.5 | N#Cc1c(N)sc2c(F)ccc(-c3c(Cl)cc4c(N5CCCC6(CN(C(=O)n7cncn7)C6)C5)nc(OC[C@@]56CCCN5C[C@H](F)C6)nc4c3F)c12 [Compound A129, 4-(4-(2-(1H-1,2,4-triazole-1-carbonyl)-2,6-diazaspiro[3.5]nonan-6-yl)-6-chloro-8-fluoro-2-(((2R,7aS)-2-fluorotetrahydro-1H-pyrrolizin-7a(5H)-yl)methoxy)quinazolin-7-yl)-2-amino-7-fluorobenzo[b]thiophene-3-carbonitrile] | 1 to 10 | +++ (+++ indicates greater than 20% labelling) | – | – | – |
| 0.5 to 5 | – | – | Nc1nc2c(-c3c(Cl)cc4c(N5CCN(C(=O)n6cncn6)CC(F)(F)C5)nc(OC[C@@]56CCCN5C[C@H](F)C6)nc4c3F)ccc(F)c2s1 [Compound A141, (4-(7-(2-amino-7-fluorobenzo[d]thiazol-4-yl)-6-chloro-8-fluoro-2-(((2R,7aS)-2-fluorotetrahydro-1H-pyrrolizin-7a(5H)-yl)methoxy)quinazolin-4-yl)-6,6-difluoro-1,4-diazepan-1-yl)(1H-1,2,4-triazol-1-yl)methanone] | 1 to 10 | +++ (+++ indicates greater than 20% labelling) | +++ (+++: indicates equal to or greater than 20% labelling) | – | – |
| – | – | – | N#Cc1c(N)sc2c(F)ccc(-c3c(Cl)cc4c(N[C@H]5C[C@H]6CC[C@@H](C5)N6C(=O)n5cncn5)nc(OC[C@@]56CCCN5C[C@H](F)C6)nc4c3F)c12 [Compound A257, 4-(4-(((1R,3r,5S)-8-(1H-1,2,4-triazole-1-carbonyl)-8-azabicyclo[3.2.1]octan-3-yl)amino)-6-chloro-8-fluoro-2-(((2R,7aS)-2-fluorotetrahydro-1H-pyrrolizin-7 a(5H)-yl)methoxy)quinazolin-7-yl)-2-amino-7-fluorobenzo[b]thiophene-3-carbonitrile] | – | ++ (++ indicates between about 1%- 20% labelling) | – | 0.5 to 5 | 1 to 10 |
| – | greater than 1 | ≤ 0.5 | N#Cc1c(N)sc2c(F)ccc(-c3c(Cl)cc4c(N5CCC6C5CN6C(=O)n5cncn5)nc(OC[C@@]56CCCN5C[C@H](F)C6)nc4c3F)c12 (stereo partly drawn) [Compound A183, 4-(4-(6-(1H-1,2,4-triazole-1-carbonyl)-2,6-diazabicyclo[3.2.0]heptan-2-yl)-6-chloro-8-fluoro-2-(((2R,7aS)-2-fluorotetrahydro-1H-pyrrolizin-7a(5H)-yl)methoxy)quinazolin-7-yl)-2-amino-7-fluorobenzo[b]thiophene-3-carbonitrile] | ≤ 1 | ++ (++ indicates between about 1%- 20% labelling) | – | – | – |
| – | greater than 1 | ≤ 0.5 | N#Cc1c(N)sc2c(F)ccc(-c3c(Cl)cc4c(N5CCC6C5CCCN6C(=O)n5cncn5)nc(OC[C@@]56CCCN5C[C@H](F)C6)nc4c3F)c12 (stereo partly drawn) [Compound A152, 4-(4-(4-(1H-1,2,4-triazole-1-carbonyl)octahydro-1H-pyrrolo[3,2-b]pyridin-1-yl)-6-chloro-8-fluoro-2-(((2R,7aS)-2-fluorotetrahydro-1H-pyrrolizin-7a(5H)-yl)methoxy)quinazolin-7-yl)-2-amino-7-fluorobenzo[b]thiophene-3-carbonitrile] | ≤ 1 | +++ (+++ indicates greater than 20% labelling) | – | – | – |
| – | – | – | N#Cc1cn(C(=O)N2C3CCC2CN(c2nc(OC[C@@]45CCCN4C[C@H](F)C5)nc4c(F)c(-c5ccc(F)c6sc(N)nc56)c(Cl)cc24)C3)cn1 [Compound A123, 1-(3-(7-(2-amino-7-fluorobenzo[d]thiazol-4-yl)-6-chloro-8-fluoro-2-(((2R,7aS)-2-fluorotetrahydro-1H-pyrrolizin-7a(5H)-yl)methoxy)quinazolin-4-yl)-3,8-diazabicyclo[3.2. 1]octane-8-carbonyl)-1H-imidazole-4-carbonitrile] | – | ++ (++ indicates between about 1%- 20% labelling) | ++ (++: indicates between 1% to 20% labelling) | 0.5 to 5 | ≤ 1 |
| – | – | ≤ 0.5 | Cc1nc(C)n(C(=O)N2CC3(C2)CN(c2nc(OC[C@@]45CCCN4C[C@H](F)C5)nc4c(F)c(-c5ccc(F)c6sc(N)c(C#N)c56)c(Cl)cc24)CCO3)n1 [Compound A283, 2-amino-4-(6-chloro-4-(2-(3,5-dimethyl-1H-1,2,4-triazole-1-carbonyl)-5-oxa-2,8-diazaspiro[3.5]nonan-8-yl)-8-fluoro-2-(((2R,7aS)-2-fluorotetrahydro-1H-pyrrolizin-7a(5H)-yl)methoxy)quinazolin-7-yl)-7-fluorobenzo[b]thiophene-3-carbonitrile] | 1 to 10 | +++ (+++ indicates greater than 20% labelling) | – | – | – |
| – | greater than 1 | ≤ 0.5 | N#Cc1c(N)sc2c(F)ccc(-c3c(Cl)cc4c(N5CCC6(CN(C(=O)n7cncn7)C6)C5)nc(OC[C@@]56CCCN5C[C@H](F)C6)nc4c3F)c12 [Compound A277, 4-(4-(2-(1H-1,2,4-triazole-1-carbonyl)-2,6-diazaspiro[3.4]octan-6-yl)-6-chloro-8-fluoro-2-(((2R,7aS)-2-fluorotetrahydro-1H-pyrrolizin-7a(5H)-yl)methoxy)quinazolin-7-yl)-2-amino-7-fluorobenzo[b]thiophene-3-carbonitrile] | 1 to 10 | +++ (+++ indicates greater than 20% labelling) | +++ (+++: indicates equal to or greater than 20% labelling) | – | – |
| – | greater than 1 | ≤ 0.5 | Cc1ncn(C(=O)N2CC3CCN(c4nc(OC[C@@]56CCCN5C[C@H](F)C6)nc5c(F)c(-c6ccc(F)c7sc(N)c(C#N)c67)c(Cl)cc45)C3C2)n1 (stereo partly drawn) [Compound A304, 2-amino-4-(6-chloro-8-fluoro-2-(((2R,7aS)-2-fluorotetrahydro-1H-pyrrolizin-7a(5H)-yl)methoxy)-4-(5-(3-methyl-1 H-1,2,4-triazole-1-carbonyl)hexahydropyrrolo[3,4-b]pyrrol-1(2H)-yl)quinazolin-7-yl)-7-fluorobenzo[b]thiophene-3-carbonitrile] | 1 to 10 | +++ (+++ indicates greater than 20% labelling) | – | – | – |
